Key:
Format in all cases: cell-based, human
[1] = system: T cell line of each patient specifically recognizing Cry j 1 or Cry j 2; test: T cell line proliferation response to overlapping peptides ([3H] thymidine uptake); conditions: mean stimulation index multiplied by frequency of appearance; T cell lines of 18 patients; 2 μM peptide
Method: Peripheral lymphocytes from 18 patients with cedar pollinosis were stimulated by cedar pollen allergen Cry j 1 or Cry j 2to establish the T cell line of each patient capable of specifically recognizing the respective allergen.
A mixture of 5×10^4 cells of the autologous B cell line treated with mitomycin C, 2 μM of an overlapping peptide, and 2×10^4 cells of the T cell line was incubated for 2 days in RPMI-1640 medium supplemented with 0.2 ml of 15% serum on a 96-well culture plate. After 0.5 μCi [^3H] thymidine was added to the medium, incubation was continued for a further 18 hours. After the cells were harvested on a glass filter using a cell harvester, the level of [^3H] thymidine taken up into the cells was determined with a liquid scintillation counter. If the stimulation index is 2 or more, we consider that the added peptide is recognized as an antigenic peptide. The stimulation index means a value obtained by dividing the level of [^3H] thymidine taken up into the cells when the peptide was added by the level of [^3H] thymidine taken up into the cells when no peptide was added.
The HLA class II type is considered to vary in every patient. It is thus assumed that a T cell epitope to be recognized would vary depending on the HLA class II type. For this reason, the antigenic peptide that the patients recognized was mapped for the individual patient. […] On the allergen molecule, there are both regions that can be readily recognized and regions that can hardly be recognized, as a T cell epitope, depending on individuals. Moreover, since the proliferation rate of T cells varies depending on a T cell epitope, the epitope map alone makes it difficult to determine what antigenic peptide should be chosen to design the multi-epitope peptide.

[2] = system: T cell clones that specifically recognize Cry j 1 or Cry j 2; test: Identifying T cell epitope peptide recognized by T cell clone; conditions: 2 μM overlapping peptide; clones from patients
Source text: Two patients, Patient B (PB) and Patient J (PJ), who recognize Peptide Nos. 43 and 22 showing a high positivity index in Cry j 1 and three patients, who recognize Peptide Nos. 14, 38, 48, and 69 showing a high positivity index in Cry j 2 were selected from the eighteen patients with cedar pollinosis. Peripheral lymphocytes from these patients with cedar pollinosis were stimulated by Cry j 1 or Cry j 2 to establish T cell clones capable of recognizing Cry j 1 or Cry j 2. The types of HLA class I and class II molecules of the four patients are shown below.
Thirty-five T cell clones in total that specifically recognize Cry j 1 were established from the peripheral lymphocytes derived from PB, and 14 similar T cell clones from PJ. Likewise, 31 T cell clones, 10 T cell clones, and 17 T cell clones in total that specifically recognize Cry j 2 were established from the peripheral lymphocytes derived from PB, PC and PR, respectively. […] A mixture of 5×10^4 cells of the autologous B cell line previously treated with mitomycin C, 2 μM of an overlapping peptide, and 2×10^4 cells of the T cell clone was incubated for 2 days in RPMI-1640 medium supplemented with 0.2 ml of 15% serum on a 96-well micro culture plate. […] After the cells were harvested on a glass filter using a cell harvester, the level of [^3H] thymidine taken up into the cells was determined using a liquid scintillation counter. […]

HLA class II molecules = test: Identifying the HLA class II restriction molecules (transfected mouse L-cells or haplotype-matched B cell line as antigen-presenting cells); conditions: 2 μM peptide
Method: HLA class II restriction molecules can be identified using the T cell clones whose restriction molecules were identified at the HLA class II locus level and, as antigen-presenting cells, mouse L-cells transfected with each type for DR and B cell line having the same haplotype for DQ or DP.
A mixture of 5×10^4 mouse L cells previously treated with mitomycin C of the B cell line coincident in haplotype; 2 μM of an overlapping peptide; 3 μg/ml of anti-DR, -DQ or -DP monoclonal antibody (manufactured by Becton-Dickinson Inc.); and 2×10^4 cells of the T cell clone was incubated for 2 days in RPMI-1640 medium supplemented with 0.2 ml of 15% serum on a 96-well micro culture plate. After 0.5 μCi [^3H] thymidine was added to the medium, incubation was continued for a further 18 hours. After the cells were harvested on a glass filter using a cell harvester, the level of [^3H] thymidine taken up into the cells was determined using a liquid scintillation counter.

T cell clones = test: Recognizing the T cell epitopes in the multi-epitope peptide C.A.#4 by T cell clones; conditions: clones PB8-3, PB8-34, PB4-22, PB14-5, PB14-3; C.A.#4 10 μg/ml
Method: The antigenic peptide constituting the multi-epitope peptide C.A.#4 obtained in Example 6 was examined to determine if the antigenic peptide actually functions as a T cell epitope.
On a 96-well micro culture plate, a mixture of 5×10^4 cells of the autologous B cell line previously treated with mitomycin C and 2×10^4 cells of the T cell clone was incubated for 2 days in 0.2 ml 15% serum-supplemented RPMI-1640 medium, together with, as an antigen, either 50 μg/ml of Cry j 1 and 2 μg/ml of Cry j 2, each antigenic peptide constituting the multi-epitope peptide C.A.#4 or 10 μg/ml C.A.#4 multi-epitope peptide produced by gene expression. After 0.5 μCi [^3H] thymidine was added to the medium, incubation was continued for a further 16 hours. After the cells were harvested on a glass filter using a cell harvester, the level of [^3H] thymidine taken up into the cells was determined using a liquid scintillation counter.

[3] = system: T cell lines (PJ, PR, PB) and T cell clones (PB 8-3, PB 8-2, PB 9-39); test: Determination of core sequence of Cry j 1 peptide No. 22 with T cell lines and clones
Source text: To determine the minimum amino acid sequence (core) of the Cry j 1 peptide No. 22 (p106-120) necessary for the T cell line and T cell clone proliferation response, one amino acid residue each was deleted from the N and C terminals of this peptide as shown in FIG. 15 to prepare eleven peptides, i.e., p107-120 (p22-2), P108-120 (p22-3), p109-120 (p22-4), p110-120 (p22-5), p111-120 (p22-6), p106-119 (p22-7), p106-118 (p22-8), p106-117 (p22-9), p106-116 (p22-10), and p106-115 (p22-11) using a peptide synthesizer (PSSM-8, manufactured by Shimadzu Seisakusho Ltd.). The T cell lines (PJ, PR, PB) derived from three patients with cedar pollinosis and which react with Cry j 1 Peptide No. 22, p106-120, and the T cell clones (PB 8-3, PB 8-2, PB 9-39) from one of the patients were examined for the reactivity with these 11 peptides in the same manner as in Examples 1 and 2. […] The results reveal that the p106-120 core sequence consists of nine residues of “FIKRVSNVI”(SEQ ID NO. 7) (the nine residues are designated as Cry j 1 #22 core).

[4] = system: Cry j 1-specific T cell line; test: Reactivity of Cry j 1-specific T cell line; conditions: from patients with cedar pollinosis
Source text: (§1) Two peptides (Cha o 1 #8-Cry j 1 #22 core, Cha o 1 #32-Cry j 1 #22 core) were synthesized by joining Peptide No. 8 (p71-90: […] SEQ ID NO. 11) which is a T cell epitope of hinoki pollen allergen Cha o 1 (Japanese Patent Application N. Hei. 8-15327), or Peptide No. 32 ([…]: […] SEQ ID NO. 12) to Cry j 1 #22 core sequence “FIKRVSNVI”(SEQ ID NO. 7) obtained in Example 14 using a peptide synthesizer (PSSM-8, Shimadzu Seisakusho Ltd.). An RR sequence was inserted between Cha o 1 #8 and Cry j 1 #22 core and between Cha o 1 #32 and Cry j 1 #22 core, that is, Cha o 1 #8-Cry j 1 #22 core (SEQ NO: 4) and Cha o 1 #32-Cry j 1 #22 core (SEQ NO: 5).
(§2) A Cry j 1-specific T cell line and a Cha o 1-specific T cell line were prepared from the patients with cedar pollinosis and hinoki pollinosis, respectively. […] However, these T cell lines all react with the multi-epitope peptide of SEQ NO: 4 and with the multi-epitope peptide of SEQ NO: 5.

[5] = system: Cha o 1-specific T cell line; test: Reactivity of Cha o 1-specific T cell line; conditions: from patients with hinoki pollinosis
Source text: as §1, §2

| Substance | positivity index [1] | recognition of peptide by allergen-specific T cell clones [2] | peptide-presenting restriction molecule (HLA class II molecules) | proliferation response of the T cell clones recognizing the respective epitope (T cell clones) | proliferation response ([3]; one T cell line and T cell clone) | proliferation response ([3]; two T cell lines (PJ, PB) and two T cell clones (PB 8-2, PB 9-39)) | reactivity of Cry j 1-specific T cell line [4] | reactivity of Cha o 1-specific T cell line [5] |
| --- | --- | --- | --- | --- | --- | --- | --- | --- |
| KSMKVTVAFNQFGPN [Cry j 1 Peptide No. 43] | 679 | recognized | DPA1*0101-DPB1*0501 | react well |  |  |  |  |
| Cry j 1 Peptide No. 22: Cry j 1 overlapping peptide No. 22, p106-120 (PCVFIKRVSNVIIHG; Figure 15, p22-1.; listed as Cryptomeria japonica) | 578 | recognized | DRB5*0101 | react well | did not show any proliferation response | proliferated | reacts with | does not react with |

From patent US6719976B1, “Peptide-based immunotherapeutic agent for treating allergic diseases” (Meiji Milk Products Co., Ltd., priority 1996, dated 2004)
